These results are taken from article PMC13185115, “Photovermellogens: Minimalistic Pyridinium-Based Acylhydrazones with Photoswitchable Basicity for Operation in Aqueous Media” (The Journal of Organic Chemistry, 2026).

Type in all cases: physicochemical
A short description of series [1]: Thermal Z-PH+ to E-PH+ back-isomerization kinetics. As to conditions: Arrhenius analysis, 47, 55 and 64 °C, from 254 nm photostationary state. The text has this:
Photoisomerization studies were subsequently carried out in acidic medium (pH = pK a – 2) in order to assess the photoresponse of the protonated species. Under these conditions, the anticipated photoisomerization of the thermally stable E-P a–dH^+ species was investigated by UV–vis absorption spectroscopy under irradiation at 254 nm. […] It is noteworthy that the irradiation wavelength can be extended to 365 nm, yielding virtually the same observations as for 254 nm irradiation (see footnotes of Table ). Irradiation also produced clear NMR spectral changes that support the occurrence of the E→Z isomerization. In essence, the signals Hf–h of the phenyl moiety were only slightly affected, whereas those of the pyridinium and acylhydrazone fragments shifted markedly, consistent with the formation of an intramolecular hydrogen bond in the Z-P a–cH^+ species. The reverse Z→E transformation of the protonated forms P a–cH^+ was also achieved upon irradiation at λ > 420 nm, giving lower quantum yields and less favorable PSDs (Figures S145–S147, S149–154, S1).
5.5. Z-P a-cH+→E-P a-cH+ thermal back-isomerization kinetics.
Figure S155. Absorption spectrum variation during 48h at room temperature from the PSS reached for P aH·Cl (7µM, pH 6, Red) state during 48h. E-isomer absorption spectrum in green.
Even though the kinetics has not been fully completed, it can be observed that it occurs much more slowly than photochemical processes.
To obtain an estimation of P aH·Cl Z→E thermal half-live at room temperature, the Z →E thermal reversion kinetics were monitored starting from the 254nm photostationary state at different temperatures (47, 55 and 64 °C). By tracking the absorbance changes at 420 nm, an Arrhenius analysis was performed, allowing the determination of the activation energy (EA) and the estimation of the thermal half-life at 25 °C.

Series [2] can be described thus: Thermal Z-P to E-P isomerization of the kinetically trapped conjugate bases at pH 13. As to conditions: 26 µM, pH 13, room temperature, monitored at 429 nm. The text has this:
Having confirmed the photochemical behavior of the protonated forms, we next explored their light-responsiveness in the deprotonated state. […] To probe whether Z-P a–c could nonetheless be generated indirectly, we explored a consecutive photoisomerization–deprotonation sequence. Thus, E-P a–cH^+ was first irradiated at 254 nm and pH 6 to enrich the Z population, followed by immediate adjustment of the solution to pH 13. Under these conditions, transient spectroscopic features were observed, consistent with the kinetic trapping of the metastable Z-P a–c species. […]
To gain further insight into the behavior of the metastable Z-bases, absorbance changes of the kinetically trapped state were monitored over time in the dark for the whole P a–c series. […]
(§1) Figure S169. […] Right: Kinetics (monitored at 429 nm) of the isomerization of Z-P a to E-P a (26 µM) at room temperature. k = 7.2 × 10 –4 s–1.
(§2) Figure S170. […] Right: Kinetics (monitored at 429 nm) of the photoisomerization of Z-P a to E-P a (26 µM) upon irradiation at >495 nm. k = 2.5 × 10 –3 s–1. […]
is in blue. Right: Kinetics (monitored at 456 nm) of the isomerization of Z-P b to E-P b (15 µM) at room temperature. k = 8.9 × 10 –5 s–1. […]
is in blue. Right: Kinetics (monitored at 432 nm) of the isomerization of Z-P c to E-P c (16 µM) at room temperature. k = 8.4 × 10 –5 s–1.

Series [3] is described as follows: Irradiation of the conjugate bases (E→Z attempt; Z→E at >495 nm). As to conditions: 26 µM, pH 13, irradiation at >495 nm, monitored at 429 nm.
Excerpt: Having confirmed the photochemical behavior of the protonated forms, we next explored their light-responsiveness in the deprotonated state. […] To probe whether Z-P a–c could nonetheless be generated indirectly, we explored a consecutive photoisomerization–deprotonation sequence. Thus, E-P a–cH^+ was first irradiated at 254 nm and pH 6 to enrich the Z population, followed by immediate adjustment of the solution to pH 13. Under these conditions, transient spectroscopic features were observed, consistent with the kinetic trapping of the metastable Z-P a–c species. […] These spectroscopic observations enabled the estimation of virtual pK a values for the Z-enriched solutions (Table and Figures S163–168, SI1), which confirmed the reduced acidity of the NH group in the Z-isomers, presumably arising from intramolecular hydrogen-bond formation.
To gain further insight into the behavior of the metastable Z-bases, absorbance changes of the kinetically trapped state were monitored over time in the dark for the whole P a–c series.
7. Thermal Z-P a-c→E-P a-c isomerizations from the PSS […]
as §1, §2

Consider `C[n+]1ccc(N/N=C\C(=O)c2ccccc2)cc1` [Z-P aH^+], for which the “activation energy E A of thermal Z→E reversion” value in series [1] was 17.4 kcal·mol^–1. For the molecule `C[n+]1ccc([N-]/N=C\C(=O)c2ccccc2)cc1` [Z-P a], in series [2], the “k thermal isomerization Z-P to E-P” value is on record as 7.2 10^–4 s^–1. In series [3], the “k photoisomerization Z-P to E-P” value is reported as 2.5 10^–3 s^–1.
